Measurements from US11571485B2, “Peptides and antibodies for detecting changes in alzheimer's disease brain and methods of use thereof” (Sanford Burnham Prebys Medical Discovery Institute, priority 2016, dated 2023).

What was measured:
[1] = biological target: albumin (BSA) (Bos taurus, UniProt P02769); assay: ELISA binding to control protein
[2] = test system: human iPS cell-derived endothelial cells (ECs) from an AD patient; assay: AgNP binding to hiPSC-derived brain endothelial cells; assay type: cell-based
Excerpt: Human iPS cell-derived from an AD patient and from a normal individual were differentiated into endothelial cells and the cultured cells were used in an overlay assay with DAG-coated and control AgNP.
The details of human induced pluripotent stem cells (hiPSCs) derived from Alzheimer disease patients with APP duplication, and non-demented control individuals, are described previously (Israel et al., Nature 482, 216-220 (2012)). These hiPSCs were extensively characterized and have been established as an excellent human model for AD. An additional AD hiPSC line generated from dermal fibroblasts from an individual harboring a Presenilinl (PSEN1) mutation (Coriell Institute, Cat #AG06840) was used to further validate the results from the APP lines. hiPSCs were routinely maintained on mouse embryonic fibroblast as described before (Lin et al., Nat Methods 6, 805-808 (2009); Talantova et al., Proc Natl Acad Sci USA 110, E2518-2527 (2013)). Brain microvascular endothelial cells differentiation of hiPSCs was performed using a previously described protocol (Lippmann et al., Nature biotechnology 30, 783-791 (2012), with minor modifications. Briefly, feeder-free cultures of hiPSCs were allowed to spontaneously differentiate in the absence of bFGF for 5-7 days, and then transferred to Endothelial cell (EC) medium composed of human Endothelial Serum-Free Medium™ (Invitrogen) supplemented with 20 ng/ml bFGF and 1% platelet-poor plasma-derived bovine serum (PDS; Biomedical Technologies). After 1-2 days the cells were dissociated with dispase (2 mg/ml) and were plated on 12 well plates coated with a mixture of collagen IV (400 μg/ml) and fibronectin (100 μg/ml). Cells were then cultured in EC medium until they reached confluence, after which they were split and expanded to near 100% purity. BBB-type EC identity was confirmed by flow cytometry or double immunoreactivity to the hallmark efflux transporter p-glycoprotein and other EC markers (CD31, GLUT-1, PECAM, Occludin, and Claudin-5). Furthermore, the capability of these cells to make functional tight junctions and polarized efflux activity was validated using a dual chamber efflux transport assay as described before.
Cell binding experiments on U251 cells and hiPSCs were with done using peptide conjugated AgNP. U251 cells were cultured in a 96-well plate. The cells were blocked with 200 μl of 10% FCS in HBSS (Hanks' Balanced Salt Solution from Gibco) for 30 min at 37° C. Following that, DAG-AgNPs (0.5 nM concentration diluted in HBSS) alone or in the presence of free non-labeled peptide (200 μM) were incubated on the cells for 1 hour at 37° C. After washing the unbound AgNP with HBSS three times, the plates were imaged with fluorescent microscopy by looking at intrinsic emission from the FAM tag on the peptide. hiPSCs were cultured in 48 well plate and similar protocol as described above was followed, with the exception that AgNP concentration for incubation was kept at 0.15 nM. Nanoparticle binding was quantified from fluorescence micrographs using ImageJ™ software.

[3] = test system: mTHY-1/α-synuclein overexpressing mouse model of Parkinson's disease; assay: In vivo homing in Parkinson's disease mouse model; conditions: systemically injected
Method: All animal experiments were conducted under an approved protocol of the Institutional Animal Care and Use Committee of Sanford Burnham Prebys Medical Discovery Institute. The following transgenic mouse models were used for peptide homing studies—hAPP-J20 ([…], Nature genetics 1, 345-347 (1992)), Tg2576 (Jacobsen et al., Proc Natl Acad Sci USA 103, 5161-5166 (2006)), and mTHY-1-α-synuclein model (Chesselet et al., Neurotherapeutics 9, 297-314 (2012)). The P13 glioblastoma model is a patient-derived orthotopic xenograft model (Bougnaud et al., Oncotarget, (2016)). Spheroids were cultured as described previously (Bjerkvig et al., J Neurosurg 72, 463-475 (1990)). After two weeks in culture, spheroids (volume 2.5 μl) were stereotactically implanted into the brains of nude mice. Mice were used approximately 6 weeks after tumors were induced, when mice started presenting neurological symptoms. The acute brain injury model was setup as previously described (Mann et al., Nature communications 7, 11980 (2016)). Briefly, 8 to 10 week-old male BL6 mice were anaesthetized with 4% isoflurane in 70% N2O and 30% O2, and a 5-mm craniotomy was performed using a portable drill and a trephine over the right parietotemporal cortex using a stereotactic frame. […]

albumin (BSA), sequence (P02769 25-607): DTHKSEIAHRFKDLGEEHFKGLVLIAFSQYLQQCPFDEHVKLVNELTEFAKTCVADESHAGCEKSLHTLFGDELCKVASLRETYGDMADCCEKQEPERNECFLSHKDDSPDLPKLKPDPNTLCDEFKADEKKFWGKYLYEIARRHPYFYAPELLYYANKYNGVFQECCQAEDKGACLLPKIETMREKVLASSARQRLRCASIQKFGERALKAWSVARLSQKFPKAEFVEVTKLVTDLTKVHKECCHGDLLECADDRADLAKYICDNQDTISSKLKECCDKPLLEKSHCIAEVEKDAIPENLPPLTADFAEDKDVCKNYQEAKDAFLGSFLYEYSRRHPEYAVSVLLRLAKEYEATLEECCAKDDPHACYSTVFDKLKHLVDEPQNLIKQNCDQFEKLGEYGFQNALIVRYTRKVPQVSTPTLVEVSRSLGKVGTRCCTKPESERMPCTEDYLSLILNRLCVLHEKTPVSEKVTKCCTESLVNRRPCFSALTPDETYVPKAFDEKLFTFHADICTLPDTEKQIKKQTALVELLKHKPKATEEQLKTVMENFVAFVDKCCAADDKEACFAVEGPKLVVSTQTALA

In the case of CDAGRKQKC, the “Binding to control protein (BSA)” value [1] was “only minimal binding to a control protein (BSA)”, the “Binding to AD patient iPS cell-derived endothelial cells” value ([2]; AD patient vs normal donor cells) was “recognizes endothelial cells differentiated from AD iPS cells and not cells prepared similarly from a control individual” and the “Binding to hiPSC-derived BMECs from non-demented individual” value ([2]; control cells) was “did not bind to hiPSC-derived BMECs from a non-demented individual”. The “Accumulation in Parkinson's model brain” value [3] was “accumulated in GFAP-positive astrocytes”.
